Experimental data published in patent publication US3963707A, “Novel N-nitroso compounds, compositions containing such compounds, processes for their preparation and methods of treatment therewith, and novel intermediates” (Aktiebolaget Leo, priority 1973, dated 1976).
Read-outs that look alike come from different tables or passages of the source.

Assays:
[1] = Ehrlich ascites tumour test (LD50, ED50, therapeutic index); assay type: in vivo, SPF NMRI mice; conditions: mouse, in vivo, ip; one injection i.p., mice; dose causing 50 percent lethality
Description: (§1) The high activity against tumours is further illustrated in these experiments by comparisons with known antitumour agents used in the therapy. The therapeutic indexes (T.I.), i.e. the ratios LD50/ED50, are in all comparisons much more favourable with the compounds of the present invention.
(§2) LD50 is the dose that caused a 50 percent lethality of the animals, ED50 is the dose that caused a 50 percent reduction of tumour size.
(§3) The experimental design and the interpretation of the results have been in accordance with the standards set by the CCNSC (Cancer Chemotherapy Reports, January 1959 and December 1962), and by the DR&D (Cancer Chemotherapy Reports, September 1972, Vol. 3, No. 2).
(§4) The way of administration is by the intraperitoneal route (i.p.) in each case.
(§5) Ehrlich ascites tumour, ELD hyperdiploid (46 chromosomes)
(§6) Experimental animals: SPF NMRI mice.
(§7) Tumour implant: 2 × 10^6 tumour cells i.p.
(§8) Therapy: One injection i.p. on the day following implantation.
(§9) Termination: The animals are killed on the 8th day.
(§10) Evaluation: Weights of tumours of test animals compared with those of control animals.

[2] = tested on: Ehrlich ascites tumour, ELD hyperdiploid (46 chromosomes); assay: as above; assay type: in vivo, SPF NMRI mice; conditions: for T.I. (LD50/ED50): Ehrlich ascites, mice, i.p.; for ED50: Mus musculus, Ehrlich, ip; for anti-tumor activity: additional compounds, result in words
Description: as §1, §2, §3, §4, §5, §6, §7, §8, §9, §10

[3] = tested on: Walker carcinosarcoma 256; assay: Walker carcinosarcoma 256 test; assay type: in vivo, Sprague Dawley rats; conditions: for Lethality: died/used animals
Description: as §3, §4
Walker carcinosarcoma 256
Experimental animals: Sprague Dawley rats.
Tumour implant: Tumour pieces with 2-4 mm diameter, subcutaneously.
Therapy: Daily injections i.p. for 5 days starting on the day following implantation.
Termination: The animals are killed on the 9th day.
Evaluation: Weights of tumours of test animals are compared with those of control animals. The differences, in per cent of weights of tumours of control animals, give per cent tumour inhibition.
The lethality is given as the number of animals which died in the experiment/the number of animals used in the experiments.

[4] = tested on: Lymphatic leukemia L 1210; assay: Lymphatic leukemia L 1210 test; assay type: in vivo, CDF1 (C3H×DBA/2)F1 mice; conditions: for Effect %: survival time as percentage of control; for Weight change v: vs control up to the 5th day; for effect on L 1210: result in words, dose not given
Description: as §3, §4
Lymphatic leukemia L 1210
Experimental animals: CDF1 (C3H×DBA/2)F1 mice.
Tumour implant: 10^5 tumour cells i.p.
as §8
Evaluation: a) The survival time of the test animals (t) expressed as the percentage of that of control animals (c).
b. Weight change in the test animals (T) compared with that of the control animals (c) up to the 5th day.
c. The mortality rate must not exceed 35% in the test animals on the 5th day of therapy.

in vivo = assay: in vivo; parameters: species or system SPF Wistar rats; conditions: rat, in vivo, ip; one injection i.p., rats; dose causing 50 percent lethality
Outline: (§11)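 SPF Wistar rats were implanted i.p. with 5 × 10^6 AH 130 cells and given one i.p. dose the next day. On day 8 they were killed and tumour weights were compared with controls. ED50 is the dose halving tumour size, LD50 the 50% lethal dose, and T.I. is LD50/ED50.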

Hepatoma AH 130 = assay: in vivo; parameters: species or system SPF Wistar rats; conditions: for T.I. (LD50/ED50): Hepatoma AH 130, rats, i.p.; for ED50: Rattus norvegicus, ip, 192 h, one injection i.p. day after implantation, dose causing 50 percent reduction of tumour size
Outline: as §11

[5] = one injection i.p. day after implantation, dose causing 50 percent reduction of tumour size, read-out: ED50

O=P1(N(CCCl)CCCl)NCCCO1 (stereo not drawn) [Cyclofosfamid, reference compound]
LD50 [1]: 470 mg/kg
T.I. (LD50/ED50) [2]: 7.6
ED50 [2]: 62 mg/kg

CS(=O)(=O)OCCCCOS(C)(=O)=O [Busulfan, reference compound]
LD50 [1]: 71 mg/kg
T.I. (LD50/ED50) [2]: 1.3
ED50 [2, 5]: 55 mg/kg

C[C@]12CC[C@H](OC(=O)N(CCCl)N=O)C[C@@H]1CC[C@@H]1[C@@H]2CC[C@]2(C)C(=O)CC[C@@H]12 [epiandrosterone-3β-N-(2-chloroethyl)-N-nitroso carbamate]
anti-tumor activity [2]: exhibit anti-tumor activity
Tumour inhibition % ([3]; 5×125 mg/kg i.p.): 47%
Lethality ([3]; 5×125 mg/kg i.p.): 0/8
Mortality ([4]; 1×250 mg/kg i.p.): 0/20
Effect % ([4]; 1×250 mg/kg i.p.): 130%
Weight change v ([4]; 1×250 mg/kg i.p.): -1.6 g
LD50 (in vivo): > 1000 mg/kg
T.I. (LD50/ED50) (Hepatoma AH 130): > 5.000
ED50 (Hepatoma AH 130): 0.2 mg/kg

CC(C)CCC[C@@H](C)[C@H]1CC[C@H]2[C@@H]3CC=C4C[C@@H](OC(=O)N(CCCl)N=O)CC[C@]4(C)[C@H]3CC[C@]12C [cholesterol-3β-N-(2-chloroethyl)-N-nitroso carbamate]
anti-tumor activity [2]: exhibit anti-tumor activity
Tumour inhibition % ([3]; 5×500 mg/kg i.p.): 39%
Lethality ([3]; 5×500 mg/kg i.p.): 0/8
LD50 (in vivo): > 1000 mg/kg
T.I. (LD50/ED50) (Hepatoma AH 130): > 5
ED50 (Hepatoma AH 130): 200 mg/kg

S=P(N1CC1)(N1CC1)N1CC1 [Triethylene-thiophosphoramide, reference compound]
LD50 [1]: 22 mg/kg
T.I. (LD50/ED50) [2]: 1.5
ED50 [2, 5]: 15 mg/kg

C[C@]12CC[C@@H]3c4ccc(OC(=O)N(CCCl)N=O)cc4CC[C@H]3[C@@H]1CC[C@@H]2O [17β-estradiol-3-N-(2-chloroethyl)-N-nitroso carbamate]
anti-tumor activity [2]: exhibit anti-tumor activity
Tumour inhibition % ([3]; 5×31 mg/kg i.p.): 86%
Lethality ([3]; 5×31 mg/kg i.p.): 0/8
LD50 (in vivo): > 1000 mg/kg
T.I. (LD50/ED50) (Hepatoma AH 130): > 4.000
ED50 (Hepatoma AH 130): < 0.25 mg/kg

COc1ccc2c(c1)CC[C@@H]1[C@@H]2CC[C@]2(C)[C@@H](OC(=O)N(CCCl)N=O)CC[C@@H]12 [estradiol-3-methylether-17β-N-(2-chloroethyl)-N-nitroso carbamate]
anti-tumor activity [2]: exhibit anti-tumor activity
Tumour inhibition % ([3]; 5×250 mg/kg i.p.): 66%
Lethality ([3]; 5×250 mg/kg i.p.): 0/8
LD50 (in vivo): > 1000 mg/kg
T.I. (LD50/ED50) (Hepatoma AH 130): > 2.000
ED50 (Hepatoma AH 130): 0.5 mg/kg

CC(=O)O[C@H]1CC[C@H]2[C@@H]3CC=C4C[C@@H](OC(=O)N(CCCl)N=O)CC[C@]4(C)[C@H]3CC[C@]12C [androstenediol-17β-acetate-3β-N-(2-chloroethyl)-N-nitroso carbamate]
anti-tumor activity [2]: exhibit anti-tumor activity
Tumour inhibition % ([3]; 5×125 mg/kg i.p.): 59%
Lethality ([3]; 5×125 mg/kg i.p.): 0/8
LD50 (in vivo): > 250 mg/kg
ED50 (Hepatoma AH 130): 0.25 mg/kg

C[C@]12CC[C@@H](OC(=O)N(CCCl)N=O)C[C@@H]1CC[C@@H]1[C@@H]2CC[C@]2(C)C(=O)CC[C@@H]12 [androsterone-3α-N-(2-chloroethyl)-N-nitroso carbamate]
anti-tumor activity [2]: exhibit anti-tumor activity
Tumour inhibition % ([3]; 5×250 mg/kg i.p.): 82%
Lethality ([3]; 5×250 mg/kg i.p.): 0/8
Mortality ([4]; 1×125 mg/kg i.p.): 0/20
Effect % ([4]; 1×125 mg/kg i.p.): 153%
Weight change v ([4]; 1×125 mg/kg i.p.): -2.4 g
LD50 (in vivo): > 1000 mg/kg
T.I. (LD50/ED50) (Hepatoma AH 130): > 100
ED50 (Hepatoma AH 130): 10 mg/kg

C[C@]12CC[C@@H]3c4ccc(OC(=O)N(CCCl)N=O)cc4CC[C@H]3[C@@H]1CCC2=O [estrone-3-N-(2-chloroethyl)-N-nitroso carbamate]
anti-tumor activity [2]: exhibit anti-tumor activity
Tumour inhibition % ([3]; 5×125 mg/kg i.p.): 75%
Lethality ([3]; 5×125 mg/kg i.p.): 0/8
effect on L 1210 [4]: show a significant effect
LD50 (in vivo): > 1000 mg/kg
T.I. (LD50/ED50) (Hepatoma AH 130): > 2.000
ED50 (Hepatoma AH 130): 0.5 mg/kg

C[C@]12CC[C@H](OC(=O)N(CCCCl)N=O)CC1=CC[C@@H]1[C@@H]2CC[C@]2(C)C(=O)CC[C@@H]12 [dehydroepiandrosterone-3β-N-(3-chloropropyl)-N-nitroso carbamate]
anti-tumor activity [2]: exhibit anti-tumor activity
Tumour inhibition % ([3]; 5×500 mg/kg i.p.): 24%
Lethality ([3]; 5×500 mg/kg i.p.): 0/8
LD50 (in vivo): > 1000 mg/kg
T.I. (LD50/ED50) (Hepatoma AH 130): > 2.7
ED50 (Hepatoma AH 130): 375 mg/kg

C[C@]12CC[C@@H]3c4ccc(OC(=O)c5ccccc5)cc4CC[C@H]3[C@@H]1CC[C@@H]2OC(=O)N(CCCl)N=O [estradiol-3-benzoate-17β-N-(2-chloroethyl)-N-nitroso carbamate]
anti-tumor activity [2]: exhibit anti-tumor activity
Tumour inhibition % ([3]; 5×125 mg/kg i.p.): 73%
Lethality ([3]; 5×125 mg/kg i.p.): 0/8
LD50 (in vivo): > 1000 mg/kg
T.I. (LD50/ED50) (Hepatoma AH 130): > 16
ED50 (Hepatoma AH 130): < 63 mg/kg

C[C@]12CCC(=O)C[C@@H]1CC[C@@H]1[C@@H]2CC[C@]2(C)[C@@H](OC(=O)N(CCCl)N=O)CC[C@@H]12 [dihydrotestosterone-17β-N-(2-chloroethyl)-N-nitroso carbamate]
anti-tumor activity [2]: exhibit anti-tumor activity
Tumour inhibition % ([3]; 5×250 mg/kg i.p.): 51%
Lethality ([3]; 5×250 mg/kg i.p.): 0/8
Mortality ([4]; 1×125 mg/kg i.p.): 0/20
Effect % ([4]; 1×125 mg/kg i.p.): 135%
Weight change v ([4]; 1×125 mg/kg i.p.): -0.9 g
LD50 (in vivo): > 1000 mg/kg
ED50 (Hepatoma AH 130): 1 mg/kg

CC(=O)[C@H]1CC[C@H]2[C@@H]3CC=C4C[C@@H](OC(=O)N(CCCl)N=O)CC[C@]4(C)[C@H]3CC[C@]12C [pregnenolone-3β-N-(2-chloroethyl)-N-nitroso carbamate]
anti-tumor activity [2]: exhibit anti-tumor activity
Tumour inhibition % ([3]; 5×500 mg/kg i.p.): 55%
Lethality ([3]; 5×500 mg/kg i.p.): 0/8
Mortality ([4]; 1×500 mg/kg i.p.): 0/20
Effect % ([4]; 1×500 mg/kg i.p.): 136%
Weight change v ([4]; 1×500 mg/kg i.p.): -0.8 g
LD50 (in vivo): > 1000 mg/kg
T.I. (LD50/ED50) (Hepatoma AH 130): > 526
ED50 (Hepatoma AH 130): 1.9 mg/kg

C[C@]12CC[C@H](OC(=O)N(CCBr)N=O)CC1=CC[C@@H]1[C@@H]2CC[C@]2(C)C(=O)CC[C@@H]12 [dehydroepiandrosterone-3β-N-(2-bromoethyl)-N-nitroso carbamate]
anti-tumor activity [2]: exhibit anti-tumor activity
Tumour inhibition % ([3]; 5×250 mg/kg i.p.): 61%
Lethality ([3]; 5×250 mg/kg i.p.): 0/8
LD50 (in vivo): > 1000 mg/kg
T.I. (LD50/ED50) (Hepatoma AH 130): > 14
ED50 (Hepatoma AH 130): 70 mg/kg

C[C@]12CC[C@@H](OC(=O)N(CCCl)N=O)C[C@@H]1CC[C@@H]1[C@@H]2CC[C@]2(C)[C@@H](OC(=O)N(CCCl)N=O)CC[C@@H]12 [androstanediol-3α,17β-bis/N-(2-chloroethyl)-N-nitroso carbamate/]
anti-tumor activity [2]: exhibit anti-tumor activity
Tumour inhibition % ([3]; 5×250 mg/kg i.p.): 75%
Lethality ([3]; 5×250 mg/kg i.p.): 1/8
effect on L 1210 [4]: show a significant effect
LD50 (in vivo): > 1000 mg/kg
ED50 (Hepatoma AH 130): 1 mg/kg

C1CN1c1nc(N2CC2)nc(N2CC2)n1 [Triethylene-melamine, reference compound]
LD50 [1]: 2.7 mg/kg
T.I. (LD50/ED50) [2]: 2.6
ED50 [2, 5]: 1.03 mg/kg

O=C(O)CCCc1ccc(N(CCCl)CCCl)cc1 [Chlorambucil, reference compound]
LD50 [1]: 33 mg/kg

C[C@]12CC[C@H]3[C@@H](CCC4=CC(=O)CC[C@@H]43)[C@@H]1CC[C@@H]2OC(=O)N(CCCl)N=O [19-nortestosterone-17β-N-(2-chloroethyl)-N-nitroso carbamate]
anti-tumor activity [2]: exhibit anti-tumor activity
Tumour inhibition % ([3]; 5×63 mg/kg i.p.): 65%
Lethality ([3]; 5×63 mg/kg i.p.): 1/8
Mortality ([4]; 1×31 mg/kg i.p.): 0/40
Effect % ([4]; 1×31 mg/kg i.p.): 142%
Weight change v ([4]; 1×31 mg/kg i.p.): -1.0 g
LD50 (in vivo): 150 mg/kg
T.I. (LD50/ED50) (Hepatoma AH 130): 300
ED50 (Hepatoma AH 130): 0.5 mg/kg
